Test results as given in PubChem BioAssay (NCI).
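Cells were grown in 96-well plates and exposed to each compound for 48 hours at five concentrations; endpoints were interpolated linearly between bracketing concentrations, or set to the highest concentration if not reached. GI50 = concentration required for 50% inhibition of growth. At the TGI there is no net growth.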

Legend:
Assay in all cases: NCI anticancer screen, dose series, 48 h; in the data active means GI50 below about 0.43 µM; inactive means the rest
[1] = tested on: IGROV1 ovarian
[2] = tested on: M14 melanoma
[3] = tested on: SK-MEL-28 melanoma
[4] = tested on: SNB-75 CNS
[5] = tested on: MALME-3M melanoma
[6] = tested on: OVCAR-8 ovarian
[7] = tested on: CAKI-1 renal
[8] = tested on: TK-10 renal
[9] = tested on: NCI-H522 lung
[10] = tested on: NCI-H23 lung
[11] = tested on: SNB-19 CNS
[12] = tested on: MDA-MB-435
[13] = tested on: UO-31 renal
[14] = tested on: HL-60(TB) leukemia
[15] = tested on: DU-145 prostate
[16] = tested on: SR leukemia
[17] = tested on: COLO 205 colon
[18] = tested on: SF-268 CNS
[19] = tested on: A549 NSCLC
[20] = tested on: CCRF-CEM leukemia
[21] = tested on: RXF 393 renal
[22] = tested on: LOX IMVI melanoma
[23] = tested on: A498 renal
[24] = tested on: KM12 colon
[25] = tested on: U251 CNS
[26] = tested on: HT29 colon
[27] = tested on: ACHN renal
[28] = tested on: OVCAR-3 ovarian
[29] = tested on: NCI-H460 lung
[30] = tested on: BT-549 breast
[31] = tested on: HCT-116 colon
[32] = tested on: UACC-62 melanoma
[33] = tested on: SK-MEL-2 melanoma
[34] = tested on: HCT-15 colon
[35] = tested on: RPMI-8226 leukemia
[36] = tested on: MDA-MB-231 breast
[37] = tested on: MCF7 breast
[38] = tested on: OVCAR-4 ovarian
[39] = tested on: HOP-62 NSCLC
[40] = tested on: K-562 leukemia
[41] = tested on: SN12C renal
[42] = tested on: NCI-H226 lung
[43] = tested on: PC-3 prostate
[44] = tested on: SK-MEL-5 melanoma
[45] = tested on: SW-620 colon
[46] = tested on: HCC-2998 colon
[47] = tested on: HOP-92 NSCLC
[48] = tested on: 786-0 renal
[49] = tested on: SF-295 CNS
[50] = tested on: SF-539 CNS
[51] = tested on: SK-OV-3 ovarian
[52] = tested on: T-47D breast
[53] = tested on: NCI/ADR-RES ovarian
[54] = tested on: OVCAR-5 ovarian
[55] = tested on: MOLT-4 leukemia

C=CC(C)c1cccc(C=O)c1O (stereo not given)
inactive: GI50 [1] 37 µM | GI50 [2] 27.3 µM | GI50 [3] > 100 µM | GI50 [4] 35.1 µM | GI50 [5] > 100 µM | GI50 [6] 73.6 µM | GI50 [7] 45 µM | GI50 [8] 38.8 µM | GI50 [9] > 100 µM | GI50 [10] > 100 µM | GI50 [11] 74.2 µM | GI50 [12] 4.47 µM | GI50 [13] 57.9 µM | GI50 [14] 19.9 µM | GI50 [15] 94.9 µM | GI50 [16] 3.82 µM | GI50 [17] > 100 µM | GI50 [18] 35.8 µM | GI50 [19] > 100 µM | GI50 [20] 17.4 µM | GI50 [21] 37 µM | GI50 [22] 30.7 µM | GI50 [23] > 100 µM | GI50 [24] 91.6 µM | GI50 [25] 42.6 µM | GI50 [26] 37 µM | GI50 [27] 80.9 µM | GI50 [28] 58.3 µM | GI50 [29] > 100 µM | GI50 [30] 23.8 µM | GI50 [31] 18.1 µM | GI50 [32] 44.6 µM | GI50 [33] 54 µM | GI50 [34] 22 µM | GI50 [35] 19.7 µM | GI50 [36] 27.3 µM | GI50 [37] 15.8 µM | GI50 [38] 75.4 µM | GI50 [39] 49.3 µM | GI50 [40] 4.08 µM | GI50 [41] 53.7 µM | GI50 [42] > 100 µM | GI50 [43] 26.7 µM | GI50 [44] 49.2 µM | GI50 [45] 27.2 µM | GI50 [46] > 100 µM | GI50 [47] 4.93 µM | GI50 [48] 97.1 µM | GI50 [49] > 100 µM | GI50 [50] 45 µM | GI50 [51] > 100 µM | GI50 [52] 28.8 µM | GI50 [53] 19.6 µM | GI50 [54] > 100 µM | GI50 [55] 8.45 µM
41.7 µM: TGI [12]
> 100 µM: TGI [1] | TGI [2] | TGI [3] | TGI [4] | TGI [5] | TGI [6] | TGI [7] | TGI [8] | TGI [9] | TGI [10] | TGI [11] | TGI [13] | TGI [14] | TGI [15] | TGI [16] | TGI [17] | TGI [18] | TGI [19] | TGI [20] | TGI [21] | TGI [22] | TGI [23] | TGI [24] | TGI [25] | TGI [26] | TGI [27] | TGI [28] | TGI [29] | TGI [30] | TGI [31] | TGI [32] | TGI [33] | TGI [34] | TGI [35] | TGI [36] | TGI [37] | TGI [38] | TGI [39] | TGI [40] | TGI [41] | TGI [42] | TGI [43] | TGI [44] | TGI [45] | TGI [46] | TGI [48] | TGI [49] | TGI [50] | TGI [51] | TGI [52] | TGI [53] | TGI [54] | TGI [55]
70.5 µM: TGI [47]
